Measurements from publication PMC7484799, “Evolution of isoprenyl diphosphate synthase-like terpene synthases in fungi” (Scientific Reports, 2020).

Experiments:
MliILTPS1 = molecular target: T1, MliILTPS1 (Melampsora lini, UniProt A0A858E7J4); test: in vitro terpene synthase assay, SPME GC-MS; format: biochemical; conditions: room temperature, 60 min
T1 construct: gene ILTPS1; full-length synthesized cDNA in pET-32a, N-terminal His-tag, E. coli BL21(DE3) pLysS
T1 sequence (A0A858E7J4 1-329): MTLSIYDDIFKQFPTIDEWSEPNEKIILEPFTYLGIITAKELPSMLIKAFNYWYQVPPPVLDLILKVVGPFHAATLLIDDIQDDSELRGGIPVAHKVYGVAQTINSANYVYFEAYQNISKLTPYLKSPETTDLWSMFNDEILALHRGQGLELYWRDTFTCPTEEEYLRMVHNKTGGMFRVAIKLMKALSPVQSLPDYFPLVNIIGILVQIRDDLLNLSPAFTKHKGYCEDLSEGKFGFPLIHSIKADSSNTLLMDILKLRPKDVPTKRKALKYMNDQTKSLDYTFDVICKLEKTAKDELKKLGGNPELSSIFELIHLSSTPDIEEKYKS

MlpILTPS2 = molecular target: T2, MlpILTPS2 (Melampsora laricis-populina, UniProt A0A858E4Y6); test: in vitro terpene synthase assay, SPME GC-MS; format: biochemical; conditions: room temperature, 60 min
T2 construct: gene ILTPS2; full-length cDNA from infected Populus nigra leaves in pET-32a, N-terminal His-tag, E. coli BL21(DE3) pLysS
T2 sequence (A0A858E4Y6 1-316): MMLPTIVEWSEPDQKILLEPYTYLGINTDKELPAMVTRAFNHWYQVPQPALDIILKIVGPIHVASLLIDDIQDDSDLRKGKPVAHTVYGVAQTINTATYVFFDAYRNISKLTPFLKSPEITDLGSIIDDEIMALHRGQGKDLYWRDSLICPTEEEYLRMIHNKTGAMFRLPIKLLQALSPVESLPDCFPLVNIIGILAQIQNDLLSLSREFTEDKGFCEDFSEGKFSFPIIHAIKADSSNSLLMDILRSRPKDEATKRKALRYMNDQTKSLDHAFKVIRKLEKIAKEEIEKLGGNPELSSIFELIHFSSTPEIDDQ

MlpILTPS1 = molecular target: T3, MlpILTPS1 (Melampsora laricis-populina, UniProt A0A858E4Y8); test: in vitro terpene synthase assay, SPME GC-MS; format: biochemical; conditions: room temperature, 60 min
T3 construct: gene ILTPS1; full-length cDNA from infected Populus nigra leaves in pET-32a, N-terminal His-tag, E. coli BL21(DE3) pLysS
T3 sequence (A0A858E4Y8 1-324): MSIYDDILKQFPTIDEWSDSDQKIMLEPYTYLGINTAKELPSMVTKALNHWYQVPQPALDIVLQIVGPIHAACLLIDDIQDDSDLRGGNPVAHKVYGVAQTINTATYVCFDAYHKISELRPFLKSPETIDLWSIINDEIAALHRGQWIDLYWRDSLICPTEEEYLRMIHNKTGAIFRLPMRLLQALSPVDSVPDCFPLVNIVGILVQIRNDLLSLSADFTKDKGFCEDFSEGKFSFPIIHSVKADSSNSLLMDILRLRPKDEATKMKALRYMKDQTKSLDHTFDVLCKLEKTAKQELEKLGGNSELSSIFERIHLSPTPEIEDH

MliGGDPS = molecular target: T4, MliGGDPS (Melampsora lini, UniProt A0A858E6N7); test: radiochemical IDS assay, TLC; format: biochemical; conditions: MOPS pH 7.0, 10 mM MgCl2, 30 °C; co-substrate [1-14C]-IDP; product GGDP
T4 construct: gene GGDPS; full-length synthesized cDNA in pET-32a, N-terminal His-tag, E. coli BL21(DE3) pLysS
T4 sequence (A0A858E6N7 1-365): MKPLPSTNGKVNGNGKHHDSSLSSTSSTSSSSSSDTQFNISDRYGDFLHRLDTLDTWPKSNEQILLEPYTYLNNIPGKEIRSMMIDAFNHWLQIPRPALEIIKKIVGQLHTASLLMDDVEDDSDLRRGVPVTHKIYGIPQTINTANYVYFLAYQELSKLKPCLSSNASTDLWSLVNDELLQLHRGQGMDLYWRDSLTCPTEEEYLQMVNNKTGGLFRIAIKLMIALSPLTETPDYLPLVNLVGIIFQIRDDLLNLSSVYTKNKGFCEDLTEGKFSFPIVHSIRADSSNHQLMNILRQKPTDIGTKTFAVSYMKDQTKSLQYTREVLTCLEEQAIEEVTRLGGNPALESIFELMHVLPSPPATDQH

MlpGGDPS = molecular target: T5, MlpGGDPS (Melampsora laricis-populina, UniProt A0A858E7G0); test: radiochemical IDS assay, TLC; format: biochemical; conditions: MOPS pH 7.0, 10 mM MgCl2, 30 °C; co-substrate [1-14C]-IDP; product GGDP
T5 construct: gene GGDPS; full-length cDNA from infected Populus nigra leaves in pET-32a, N-terminal His-tag, E. coli BL21(DE3) pLysS
T5 sequence (A0A858E7G0 1-364): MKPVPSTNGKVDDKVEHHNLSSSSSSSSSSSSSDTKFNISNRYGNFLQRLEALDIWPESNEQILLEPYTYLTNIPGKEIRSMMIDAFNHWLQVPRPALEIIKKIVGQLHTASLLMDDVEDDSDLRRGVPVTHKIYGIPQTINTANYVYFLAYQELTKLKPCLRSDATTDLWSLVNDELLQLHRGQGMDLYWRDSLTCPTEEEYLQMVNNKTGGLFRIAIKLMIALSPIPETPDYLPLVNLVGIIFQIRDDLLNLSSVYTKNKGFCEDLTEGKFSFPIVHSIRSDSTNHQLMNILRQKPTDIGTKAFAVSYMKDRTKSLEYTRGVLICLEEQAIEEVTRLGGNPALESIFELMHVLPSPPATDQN

[1] = substrate: CC(C)=CCC/C(C)=C/CC/C(C)=C/CO[P@@](=O)(O)OP(=O)(O)O; test: radiochemical terpene synthase assay, hexane extraction; format: biochemical, Melampsora lini; conditions: MOPSO pH 7.0, 10 mM MgCl2, 0.05 mM MnCl2, room temperature, labelled compound
Experimental: radiochemical terpene synthase assay, hexane extraction on MliILTPS3 | the apparent Km values of MliILTPS2 and MliILTPS3 using FDP as substrate were determined

[2] = substrate: CC(C)=CCC/C(C)=C/CC/C(C)=C/CO[P@@](=O)(O)OP(=O)(O)O; test: as above; format: biochemical, Melampsora lini; conditions: MOPSO pH 7.0, 10 mM MgCl2, 0.05 mM MnCl2, room temperature, labelled compound; remark: listed apart in the source
Experimental: radiochemical terpene synthase assay, hexane extraction on MliILTPS2 | the apparent Km values of MliILTPS2 and MliILTPS3 using FDP as substrate were determined

## CC(C)=CCC/C(C)=C/COP(=O)(O)OP(=O)(O)O [GDP]
MliILTPS1; product linalool
  in vitro terpene synthase assay, SPME GC-MS: both MliILTPS1 and MliILTPS3 converted GDP to linalool
MlpILTPS2; product linalool
  in vitro terpene synthase assay, SPME GC-MS: In contrast, MlpILTPS2 produced only linalool
MlpILTPS1; products (E)-beta-ocimene (major), linalool (minor)
  in vitro terpene synthase assay, SPME GC-MS: When GDP was provided as a substrate, MlpILTPS1 produced (E)-β-ocimene as a major product

## CC(C)=CCC/C(C)=C/CC/C(C)=C/COP(=O)(O)OP(=O)(O)O [FDP]
MliILTPS1; product (E)-nerolidol
  in vitro terpene synthase assay, SPME GC-MS: both MliILTPS1 and MliILTPS3 converted FDP to (E)-nerolidol
MlpILTPS2; product (E)-nerolidol
  in vitro terpene synthase assay, SPME GC-MS: MlpILTPS2 catalyzed the formation of (E)-nerolidol
MliGGDPS
  radiochemical IDS assay, TLC: MliGGDPS was active with DMADP, GDP, and FDP to produce GGDP
MlpGGDPS
  radiochemical IDS assay, TLC: MlpGGDPS catalyzed the formation of GGDP using either DMADP, GDP, or FDP
MlpILTPS1; product (E,E)-alpha-farnesene
  in vitro terpene synthase assay, SPME GC-MS: using FDP as substrate, MlpILTPS1 produced (E,E)-α-farnesene

B1: MliILTPS3 (Melampsora lini) (protein)
chain: MSIYDDIFKQFPMIDEWSDSDEKILVEPYTYLGINTAKELPSMVTKAFNHWYQVPQPALDIILQIIGPIHAASLLLDDIQDDSDLRGGNPVAHKVYGVAQTINTATYVCFDAYHKVSQLTPFLKSPETTDLWSIINDEIAALHRGQGIELYWRDSLMCPTEEEYLRMIHNKTGAIFRLPIKLLQALSSVDSPPDCFPLLNIVGILFQIQNDISSLSPDFTKDKGFCEDFSEGKFSFPIIHSVKADSSNSLLMDILRLRPKDEATKRKALRFMKDQTKSLDHTFHVLCKLKKTAQEELEKLGGNSELSSILERIQVSPTPEIEDR
notes: full-length synthesized cDNA in pET-32a, N-terminal His-tag, E. coli BL21(DE3) pLysS
[1]
  Km: 1.6 ± 0.2 µM
  kcat: 0.05 ± 0.004 s⁻¹

B2: MliILTPS2 (Melampsora lini) (protein)
chain: MSIYDDIFKQFPTIDEWSESNEKIMLEPYTHLGINTAKELPSMVTKAFNHWYQVPQPALDIILQIVGPIHAACLLIDDIQDDSDLRGGNPVAHKVYGVAQTINTATYVCFDAYHKISKLTPFSKSPETTDLWSIINDEIAALHRGQWIDLYWRDSLICPTEEEYLRMIHNKTGAIFRLPIKLLQALSPVDSPPDCFPLVNVVGILVQIRNDLLSLSPDFTKDKGFCEDFSEGKFSFPIIHSVKADSSNSLLIDILRLRPKDEPTKRKALRYMKDQTKSLDHTFDVLCKLEKTAKEELEKLGGNSELSSILELIQVSPIPEIADR
notes: as for B1
[2]
  Km: 1.9 ± 0.3 µM
  kcat: 0.01 ± 0.001 s⁻¹
